# Read-outs that look alike come from different tables or passages of the source.
# Assays:
# [1] = Human cell viability (cytotoxicity), ATP levels by CellTiter-Glo; format: cell-based; settings: HepG2 cells (ATCC HB-8065), 24 hours incubation, read-out: IC50 (μg/mL), Cytotoxicity in HepG2 ATCC HB-8065 Cell Line
# Description: Compounds were assessed for potential non-specific cytotoxic effects against a human hepatic cell line (HepG2 ATCC HB-8065). 96-well plates were seeded with HepG2 cells in concentration of 15,000 cells per well in 100 μL of MEM growth media completed with 1% NEAA and 1% sodium pyruvate. Border wells were filled with 100 μL of sterile PBS. Two days upon cells incubation, the compounds were added. Compound dilutions were prepared in 96-well V-bottom plate in pure DMSO. Growth media from 5 plates were aspirated and replaced with 98.7 μL of fresh growth media. 1.28 μL of compounds prepared in V-bottom plates were transferred with multichannel pipette into test plates (78.1× dilution). Final DMSO concentration was 1.28% per well. In control wells, 1.28 μL of DMSO was added in 98.7 μL of media. Compounds were tested in duplicates. Cells were incubated with compounds for 24 hours when cell viability was assessed by measuring ATP levels. ATP levels were measured by adding 50 μL of CellTiter-Glo reagent to each well and after 5 minutes of incubation luminescence was measured with SpectraMax i3. The potential effect of tested compounds on cell viability was determined by comparing the signal obtained in presence of different concentrations of the compounds with those obtained in the presence of DMSO only. The potential effects were then calculated and presented as IC50 values (μg/mL).
# E. Coli LeuRS = E. Coli LeuRS (Escherichia coli (strain K12), UniProt P07813); test: Study 2 - Isothermal titration calorimetry (ITC); format: binding; settings: 25° C., pH 7.5, mean ± SD
# Description: Escherichia coli BL21(DE3) cells transformed with plasmid pQE-60 containing the open-reading frame sequence of one targeted aaRS (i.e., LeuRS) were induced with 1 mM IPTG (isopropyl β-D-1-thiogalactopyranoside) for 3 hours at 37° C. Bacterial cells were harvested and lysed with 20 mM HEPES (4-(2-hydroxyethyl)-1-piperazinylethane-sulfonic acid) (pH 7.5), 300 mM NaCl, 15 mM imidazole and 1 mM DTT (1,4-dithio-D-threitol). The pathogenic aaRS was first purified by nickel affinity standard chromatography. The eluted protein was concentrated and then further purified by gel filtration using 50 mM HEPES (pH 7.5), 150 mM NaCl buffer.
# ITC studies were carried out using a Microcal ITC200 instrument (GE Healthcare). Protein concentration was determined by spectrophotometry by measuring the absorbance at 280 nm using a theoretical molar extinction coefficient of 169,140 M^−1cm^−1. Ligand stock solutions were prepared in DMSO at 62.5 mM concentration. The titrations were performed at 25° C. with 7.5-100 μM E. Coli LeuRS in 50 mM HEPES, 150 mM NaCl, pH 7.5 buffer containing 1% DMSO (v/v). The protein solution in the 280 μL sample cell was titrated with the inhibitor solution (diluted to 75-3000 μM in the same buffer as the protein) using 1-2 μL injections every 120-140 seconds. All titrations were repeated at least two times. To correct for heats of dilution and mixing, the final baseline consisting of small peaks of identical size at the end of each experiment was subtracted. The experimental data were fitted to a theoretical titration curve (one site model) using MicroCal Origin 7 SR4 software.
# Note that Compounds R-4.1 and S-4.1 (in Table 15, below) correspond to Compounds V-i and V-ii (in Tables 13 and 14, above), respectively.
# [2] = tested on: Escherichia coli ATCC 25922 TolC deficient mutant (E. coli EFFLUX del); test: microbe, parasite or virus in culture; format: cell-based
# Description: (§1) Minimum Inhibitory Concentrations (MICs) were determined by the broth micro-dilution method performed according to Clinical Laboratory Standards Institute guidelines. For testing, 5 mg/mL DMSO solutions were prepared by dissolving solids in DMSO. Standard antibiotics were prepared according to CLSI guidelines as 5 mg/mL stock solutions. Upon DMSO stock solutions preparation, the working solutions in MH media were prepared by adding 38.4 μL of stock solution to 1461.6 μL of MH media. Out of these working solutions 100 μL were transferred to wells in the third column of 96-well assay plates. Assay plates were previously filled with 50 μL of MH media in all wells except for the wells in the third column. Upon compounds and antibiotics addition, 50 μL was transferred from the third to the fourth column, then from the fourth to the fifth and so on.
# (§2) MIC value was determined by visual inspection of bacterial growth within 96-well plates. The first column in which there was no visible growth of bacteria was determined as MIC value for compound or antibiotic tested in that particular row. ATCC strains were used as reference strains for which there is a determined value of MIC values for standard antibiotics. The assay is considered valid when MIC values for standard antibiotics are within CLSI designated range for ATCC strain tested.
# [3] = tested on: Enterobacter cloacae B1966 clinical isolate; test: Study 4 - MIC by broth micro-dilution (CLSI); format: cell-based
# Description: as §1, §2
# [4] = tested on: Pseudomonas aeruginosa ATCC 27853; test: Study 4 - MIC by broth micro-dilution (CLSI); format: cell-based
# Description: as §1, §2
# [5] = tested on: Escherichia coli ATCC 25922; test: Study 4 - MIC by broth micro-dilution (CLSI); format: cell-based
# Description: as §1, §2
# [6] = tested on: Acinetobacter baumannii B1931 clinical isolate; test: Study 4 - MIC by broth micro-dilution (CLSI); format: cell-based
# Description: as §1, §2
# [7] = tested on: Haemophilus influenzae ATCC 49247; test: Study 4 - MIC by broth micro-dilution (CLSI); format: cell-based; settings: G = H. influenzae ATCC 49247
# Description: as §1, §2
# [8] = tested on: Klebsiella pneumoniae ATCC 700603; test: Study 4 - MIC by broth micro-dilution (CLSI); format: cell-based
# Description: as §1, §2
# [9] = Pseudomonas aeruginosa, ATCC27853
# [10] = Haemophilus influenzae, ATCC49247, read-out: MIC
# [11] = Klebsiella pneumoniae, ATCC700603
# Chain of E. Coli LeuRS (P07813 whole entry): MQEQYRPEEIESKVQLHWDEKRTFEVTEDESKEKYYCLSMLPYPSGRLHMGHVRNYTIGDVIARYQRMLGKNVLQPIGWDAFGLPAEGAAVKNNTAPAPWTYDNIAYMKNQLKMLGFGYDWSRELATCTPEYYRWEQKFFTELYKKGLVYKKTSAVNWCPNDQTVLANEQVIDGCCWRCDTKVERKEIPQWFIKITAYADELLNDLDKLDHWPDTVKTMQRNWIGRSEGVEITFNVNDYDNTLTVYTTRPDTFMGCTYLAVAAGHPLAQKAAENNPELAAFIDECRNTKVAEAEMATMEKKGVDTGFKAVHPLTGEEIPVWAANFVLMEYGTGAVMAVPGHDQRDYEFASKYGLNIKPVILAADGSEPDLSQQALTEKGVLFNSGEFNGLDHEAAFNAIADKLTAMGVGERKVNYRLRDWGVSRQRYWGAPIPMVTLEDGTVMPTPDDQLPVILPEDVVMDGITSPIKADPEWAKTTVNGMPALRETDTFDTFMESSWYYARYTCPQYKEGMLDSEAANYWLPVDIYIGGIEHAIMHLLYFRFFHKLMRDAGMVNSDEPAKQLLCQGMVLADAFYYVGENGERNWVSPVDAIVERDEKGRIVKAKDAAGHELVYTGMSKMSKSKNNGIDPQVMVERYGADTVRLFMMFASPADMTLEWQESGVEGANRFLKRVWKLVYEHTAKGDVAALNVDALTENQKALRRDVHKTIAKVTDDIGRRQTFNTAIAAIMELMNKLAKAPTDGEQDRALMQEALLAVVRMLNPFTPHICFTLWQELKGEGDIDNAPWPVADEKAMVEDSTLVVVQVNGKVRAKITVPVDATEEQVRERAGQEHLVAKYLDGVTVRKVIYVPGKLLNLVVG
Compound,IC50 at 24 h [1] [µg/mL],Kd (E. Coli LeuRS) [nM],ΔG (E. Coli LeuRS) [kcal/mol],ΔH (E. Coli LeuRS) [kcal/mol],"MIC ([2]; Escherichia coli, ATCC25922) [µg/mL]",MIC ([3]; Enterobacter cloacae) [µg/mL],"MIC [4, 9] [µg/mL]","MIC ([5]; Escherichia coli, ATCC25922) [µg/mL]",MIC ([6]; Acinetobacter baumannii) [µg/mL],"MIC [7, 10] [µg/mL]","MIC [8, 11] [µg/mL]",further results
CC(C)CC(N)C(=O)N[S+]([O-])c1cccc(C(F)(F)F)c1 (centres unmarked) [4.18],> 64,6.06 ± 0.49,-11.20 ± 0.06,-7.03 ± 0.14,16,> 64,> 64,64,> 64,> 64,> 64,
CC[C@H]1OC(=O)[C@H](C)[C@@H](O[C@H]2C[C@@](C)(OC)[C@@H](O)[C@H](C)O2)[C@H](C)[C@@H](O[C@@H]2O[C@H](C)C[C@H](N(C)C)[C@H]2O)[C@](C)(O)C[C@@H](C)CN(C)[C@H](C)[C@@H](O)[C@]1(C)O [Azithromycin],,,,,0.5,,,,,2,,"MIC ([3]; C = Enterobacter cloacae B1966, read-out: MIC): 16 µg/mL; MIC ([4]; Pseudomonas aeruginosa, ATCC27853, E = P. aeruginosa ATCC 27853, read-out: MIC): 32 µg/mL; MIC ([5]; Escherichia coli, ATCC25922, A = E. coli ATCC 25922, read-out: MIC): 4 µg/mL; MIC ([6]; Acinetobacter baumannii, F = A. baumannii B1931, read-out: MIC): 16 µg/mL; MIC ([8]; Klebsiella pneumoniae, ATCC700603, D = KI. pneumoniae ATCC 700603, read-out: MIC): 32 µg/mL"
C#Cc1cccc([S+]([O-])NC(=O)C(N)CC(C)C)c1 (centres unmarked) [4.27],> 64,3.69 ± 0.05,-11.50 ± 0.00,-8.71 ± 1.08,2,8,> 64,4,> 64,16,32,
CC(C)CC(N)C(=O)N[S+]([O-])c1cccc(-c2ccccc2)c1 (centres unmarked) [4.17],47.7,4.47 ± 0.04,-11.39 ± 0.01,-9.72 ± 0.22,64,> 64,> 64,> 64,> 64,> 64,> 64,
CC(C)CC(N)C(=O)N[S+]([O-])c1cccc(OC(F)(F)F)c1 (centres unmarked) [4.20],> 64,1.39 ± 0.07,-12.08 ± 0.03,-11.64 ± 0.45,8,> 64,> 64,8,> 64,64,> 64,
CC(C)CC(N)C(=O)N[S+]([O-])c1ccccc1C#N (centres unmarked) [4.30],32.5,,,,16,32,32,16,8,8,32,
C[C@@H](O)[C@H]1C(=O)N2C(C(=O)O)=C(S[C@@H]3CN[C@H](C(=O)N(C)C)C3)[C@H](C)[C@H]12 [Meropenem],,,,,,,,,,,,MIC ([2]; B = E. coli EFFLUX del): 0.5 µg/mL; MIC ([3]; C = Enterobacter cloacae B1966): 0.5 µg/mL; MIC ([4]; E = P. aeruginosa ATCC 27853): >64 µg/mL; MIC ([5]; A = E. coli ATCC 25922): 0.5 µg/mL; MIC ([6]; F = A. baumannii B1931): 8 µg/mL; MIC [7]: 4 µg/mL; MIC ([8]; D = KI. pneumoniae ATCC 700603): 0.5 µg/mL
CC(C)CC(N)C(=O)N[S+]([O-])c1cc(F)cc(F)c1 (centres unmarked) [4.35],> 64,16.4 ± 2.72,-10.63 ± 0.10,-9.97 ± 0.10,16,64,> 64,16,> 64,> 64,> 64,

# Reference: patent US11802110B2, “2-amino-N-(arylsulfinyl)-acetamide compounds as inhibitors of bacterial aminoacyl-tRNA synthetase” (priority 2016, dated 2023)
